Assay results from the CheMixHub viscosity set.

Assay: xn = mol fraction of the nth substance listed

CCCC(=O)[O-].[NH3+]CCO + CCO
viscosity [mPa·s], 101 kPa
Conditions	x1 = 0.0158	x2 = 0.7685	x2 = 0.8306	x2 = 0.8824	x2 = 0.9289	x2 = 0.9483	x2 = 0.9671
293.15 K	1.608	15.79	8.436	4.968	2.91	2.364	1.944
298.15 K	1.458	13.23	7.272	4.398	2.598	2.148	1.752
303.15 K	1.35	11.24	6.33	3.882	2.34	1.92	1.602

CCCOCC(C)OCC(C)O (stereo not drawn) + CCO
viscosity [mPa·s], 101.33 kPa
Conditions	298.15 K	308.15 K	318.15 K
x1 = 0.05	1.27	1.046	0.872
x1 = 0.1	1.446	1.181	0.978
x1 = 0.15	1.621	1.315	1.081
x1 = 0.2	1.799	1.446	1.18
x1 = 0.25	1.994	1.572	1.278
x1 = 0.3	2.144	1.706	1.374
x1 = 0.3501	2.322	1.83	1.468
x1 = 0.4	2.485	1.944	1.55
x1 = 0.4501	2.643	2.055	1.631
x1 = 0.5	2.795	2.163	1.705
x1 = 0.55	2.942	2.27	1.777
x1 = 0.6	3.081	2.367	1.842
x1 = 0.6497	3.218	2.463	1.905
x1 = 0.6996	3.343	2.55	1.965
x1 = 0.7496	3.475	2.627	2.02
x1 = 0.8	3.593	2.702	2.081
x1 = 0.8499	3.704	2.764	2.131
x1 = 0.8999	3.807	2.839	2.177
x1 = 0.95	3.896	2.906	2.215

CC(=O)Nc1ccccc1 + CO
viscosity [mPa·s], 101 kPa
Conditions	298.15 K	303.15 K	308.15 K	313.15 K
x1 = 0.08868	0.9964	0.918	0.8461	0.7805
x1 = 0.1132	1.158	1.057	0.9716	0.886

CCCOCC(C)OCC(C)O (stereo not drawn) + CO
298.15 K, 101 kPa
Conditions	viscosity [mPa·s]
x1 = 0.0049	0.5615
x1 = 0.0317	0.671
x1 = 0.0663	0.8138
x1 = 0.1021	0.9677
x1 = 0.1531	1.186
x1 = 0.2032	1.412
x1 = 0.2563	1.651
x1 = 0.3125	1.899
x1 = 0.3556	2.09
x1 = 0.4091	2.314
x1 = 0.4685	2.55
x1 = 0.5204	2.746
x1 = 0.5557	2.869
x1 = 0.6337	3.117
x1 = 0.6879	3.273
x1 = 0.7232	3.366
x1 = 0.8407	3.639
x1 = 0.8827	3.724
x1 = 0.937	3.813

CC(=O)OCCC(C)C + Cc1ccc(C)cc1
viscosity [mPa·s], 101 kPa
Conditions	298.15 K	308.15 K
x1 = 0.0453	0.615	0.54
x1 = 0.1495	0.617	0.55
x1 = 0.2436	0.622	0.561
x1 = 0.3501	0.632	0.576
x1 = 0.4497	0.644	0.594
x1 = 0.4974	0.651	0.603
x1 = 0.5484	0.659	0.613
x1 = 0.6458	0.678	0.636
x1 = 0.7503	0.702	0.663
x1 = 0.8492	0.73	0.693
x1 = 0.9411	0.76	0.725

CC(=O)OCCC(C)C + Cc1cccc(C)c1
viscosity [mPa·s], 101 kPa
Conditions	298.15 K	308.15 K
x1 = 0.0471	0.58	0.529
x1 = 0.1507	0.583	0.538
x1 = 0.286	0.593	0.555
x1 = 0.3495	0.599	0.564
x1 = 0.4475	0.614	0.582
x1 = 0.5021	0.625	0.594
x1 = 0.5481	0.634	0.604
x1 = 0.6499	0.659	0.63
x1 = 0.7526	0.69	0.66
x1 = 0.8535	0.724	0.693
x1 = 0.942	0.757	0.725

CC(=O)OCCC(C)C + Cc1ccccc1
viscosity [mPa·s], 101 kPa
Conditions	298.15 K	308.15 K
x1 = 0.0474	0.555	0.505
x1 = 0.1513	0.567	0.522
x1 = 0.2512	0.581	0.54
x1 = 0.3494	0.598	0.56
x1 = 0.4458	0.616	0.581
x1 = 0.4978	0.627	0.593
x1 = 0.5497	0.639	0.606
x1 = 0.649	0.664	0.632
x1 = 0.7499	0.692	0.661
x1 = 0.855	0.726	0.695
x1 = 0.9448	0.759	0.726

CC(=O)OCCC(C)C + Cc1ccccc1C
viscosity [mPa·s], 101 kPa
Conditions	298.15 K	308.15 K
x1 = 0.045	0.754	0.657
x1 = 0.1503	0.745	0.659
x1 = 0.2526	0.738	0.66
x1 = 0.3475	0.735	0.664
x1 = 0.4468	0.735	0.67
x1 = 0.4819	0.735	0.673
x1 = 0.5459	0.737	0.679
x1 = 0.649	0.741	0.69
x1 = 0.7465	0.749	0.702
x1 = 0.8524	0.76	0.719
x1 = 0.9401	0.772	0.735

CC(=O)OCCC(C)C + ClC(Cl)(Cl)Cl
303.15 K, 101.3 kPa
Conditions	viscosity [mPa·s]
x1 = 0.1037	0.8143
x1 = 0.1985	0.8011
x1 = 0.302	0.7904
x1 = 0.4018	0.7782
x1 = 0.5027	0.7656
x1 = 0.603	0.7549
x1 = 0.7015	0.7451
x1 = 0.7985	0.7325
x1 = 0.9013	0.7155

CC(=O)OCCC(C)C + ClC(Cl)Cl
303.15 K, 101.3 kPa
Conditions	viscosity [mPa·s]
x1 = 0.1037	0.5821
x1 = 0.2076	0.6427
x1 = 0.301	0.6846
x1 = 0.3983	0.7145
x1 = 0.5044	0.7309
x1 = 0.6009	0.7377
x1 = 0.6966	0.7338
x1 = 0.8058	0.7252
x1 = 0.8911	0.7143

CC(=O)OCCC(C)C + Clc1ccccc1
viscosity [mPa·s], 101 kPa
Conditions	298.15 K	303.15 K	308.15 K	313.15 K
x1 = 0.0458	0.75	–	0.678	–
x1 = 0.0705	–	0.718	–	0.634
x1 = 0.1467	–	0.729	–	0.643
x1 = 0.1506	0.741	–	0.676	–
x1 = 0.2271	–	0.74	–	0.654
x1 = 0.251	0.735	–	0.677	–
x1 = 0.3141	–	0.751	–	0.662
x1 = 0.3515	0.732	–	0.681	–
x1 = 0.4073	–	0.758	–	0.669
x1 = 0.4513	0.731	–	0.684	–
x1 = 0.4998	0.732	–	0.687	–
x1 = 0.5006	–	0.767	–	0.675
x1 = 0.5511	0.734	–	0.691	–
x1 = 0.6085	–	0.768	–	0.674
x1 = 0.6517	0.739	–	0.699	–
x1 = 0.728	–	0.766	–	0.671
x1 = 0.7519	0.747	–	0.71	–
x1 = 0.8507	0.758	–	0.723	–
x1 = 0.8573	–	0.758	–	0.661
x1 = 0.9448	0.772	–	0.737	–

CCOP(OCC)OCC + N#Cc1ccccc1
298.15 K, 101 kPa
Conditions	viscosity [mPa·s]
x1 = 0.2	1.089
x1 = 0.4	0.963
x1 = 0.6	0.848
x1 = 0.8	0.781

CC(=O)Nc1ccccc1 + Nc1ccccc1
viscosity [mPa·s], 101.3 kPa
Conditions	298.15 K	323.15 K
x1 = 0.108	46.7	23.6
x1 = 0.195	113.4	42.5

CC(=O)O.OCCNCCO + O
viscosity [mPa·s], 100 kPa
Conditions	x1 = 0.0126	x2 = 0.1586	x2 = 0.2897	x2 = 0.4528	x2 = 0.5293	x2 = 0.6932	x2 = 0.8573	x2 = 0.9194	x2 = 0.9549
293.15 K	1.37	3625	2208	1042	658.3	162.6	19.25	6.362	3.027
303.15 K	1.099	1492	946.1	473.9	310.7	87.19	12.67	4.584	2.301
313.15 K	0.9188	686.5	452	239.3	162.4	51.05	8.836	3.442	1.818
323.15 K	0.7821	346.1	236.3	131.8	92.22	32.12	6.455	2.69	1.484

OCCC(O)CO (stereo not drawn) + O
viscosity [mPa·s], 101 kPa
Conditions	293.15 K	298.15 K	303.15 K	308.15 K	313.15 K	318.15 K	323.15 K
x1 = 0.005	1.089	0.984	0.889	0.798	0.7	0.656	0.595
x1 = 0.01	1.271	1.096	0.968	0.863	0.769	0.703	0.626
x1 = 0.015	1.46	1.193	1.067	0.942	0.853	0.77	0.678
x1 = 0.02	1.617	1.328	1.195	1.058	0.937	0.857	0.732
